Experimental data reported in patent US6569878B1, “Substituted 4-amino-thiazol-2-yl compounds as cyclin-dependent kinase inhibitors” (Agouron Pharmaceuticals Inc., priority 1997, dated 2003).

Columns and labels:
Saos-2 = assay: Inhibition of cell growth, MTT assay, Saos-2; assay type: cell-based; conditions: Homo sapiens; Saos-2, MTT assay
Experimental: (§1) The water-insoluble purple formazan product was then detected spectrophotometrically. […] Plates were incubated for four hours before addition of inhibitor compounds. Different concentrations of inhibitor compounds were added in 0.5% (v/v) dimethylsulfoxide (15 μL/well), and cells were incubated at 37° C. (5% CO2) for four to six days (depending on cell type). At the end of the incubation, MTT was added to a final concentration of 0.2 mg/mL, and cells were incubated for 4 hours more at 37° C. After centrifugation of the plates and removal of medium, the absorbance of the formazan (solubilized in dimethylsulfoxide) was measured at 540 nm.

[1] = molecular target: T1, complex of human CDK4 and cyclin D3 (Homo sapiens, UniProt P11802); assay: Inhibition of CDK4/cyclin D retinoblastoma kinase activity (D-type cyclin is D3); assay type: biochemical; conditions: superscript a: D-type cyclin is D3; apparent Ki; read-out: Ki CDK 4/D
T1 construct: made in house; host or cells: insect cells, co-infected with baculovirus
How it was run: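 Radiometric assay: [32P]- or [33P]ATP phosphate incorporation into Rb substrate at 30°C for 20 min, stopped with EDTA, filter-captured and phosphorimaged.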

U2-OS = assay: Inhibition of cell growth, MTT assay, U2-OS; assay type: cell-based; conditions: for IC50 / IC90: Homo sapiens, U2OS; for % inhibition of growth in parentheses after >25: concentration not given
Experimental: as §1

CDK2/cyclin A = molecular target: T2, CDK2/cyclin A (Homo sapiens, UniProt P24941); assay: Inhibition of CDK2/cyclin A retinoblastoma kinase activity; assay type: biochemical; conditions: read-out: Ki CDK 2/A
T2 construct: made in house; host or cells: CDK2: insect cells (baculovirus); cyclin A: E. coli, then limited proteolysis
Experimental: (§2) Cyclin-dependent kinase activity was measured by quantifying the enzyme-catalyzed, time-dependent incorporation of radioactive phosphate from [^32P]ATP or [^33P]ATP into a protein substrate. Unless noted otherwise, assays were performed in 96-well plates in a total volume of 50 μL, in the presence of 10 mM HEPES (N-[2-hydroxyethyl]piperazine-N′-[2-ethanesulfonic acid]) (pH 7.4), 10 mM MgCl2, 25 μM adenosine triphosphate (ATP), 1 mg/mL ovalbumin, 5 μg/mL leupeptin, 1 mM dithiothreitol, 10 mM β-glycerophosphate, 0.1 mM sodium vanadate, 1 mM sodium fluoride, 2.5 mM ethylene glycol-bis(β-aminoethyl ether)-N,N,N′N′-tetraacetic acid (EGTA), 2% (v/v) dimethylsulfoxide, and 0.03-0.4 μCi [^32/33P]ATP per reaction. Reactions were initiated with enzyme, incubated at 30° C., and terminated after 20 minutes by the addition of ethylenediaminetetraacetic acid (EDTA) to 250 mM. The phosphorylated substrate was then captured on a nitrocellulose or phosphocellulose membrane using a 96-well filtration manifold, and unincorporated radioactivity was removed by repeated washing with 0.85% phosphoric acid. Radioactivity was quantified by exposing the dried membranes to a phosphorimager.
(§3) Apparent Ki values were measured by assaying enzyme activity in the presence of different inhibitor compound concentrations and subtracting the background radioactivity measured in the absence of enzyme. The kinetic parameters (kcat, Km for ATP) were measured for each enzyme under the usual assay conditions by determining the dependence of initial rates on ATP concentration. Inhibition data were fit to an equation for competitive inhibition using Kaleidagraph (Synergy Software), or were fit to an equation for competitive tight-binding inhibition using the software KineTic (BioKin, Ltd.).
CDK2 was purified using published methodology (Rosenblatt et al., “Purification and Crystallization of Human Cyclin-dependent Kinase 2,” J. Mol. Biol., vol. 230, 1993, pp. 1317-1319) from insect cells that had been infected with a baculovirus expression vector. […] Purified, proteolyzed cyclin A was included in the assay at a three- to five-fold molar excess to CDK2. Alternatively, a complex of CDK2 and proteolyzed cyclin A was prepared and purified by gel filtration. The substrate for this assay was the same Rb substrate fragment used for the CDK4 assays, and the methodology of the CDK2/cyclin A and the CDK4/cyclin D3 assays was essentially the same, except that CDK2 was present at 150 nM or 5 nM. Ki values were measured as described above.

HCT116 = assay: Inhibition of cell growth, MTT assay, HCT116; assay type: cell-based, human; conditions: Homo sapiens, HCT-116
Experimental: as §1

[2] = molecular target: T3, human CDK1 (cdc2) and cyclin B (Homo sapiens, UniProt P06493); assay: Inhibition of CDK1(cdc2)/cyclin B histone H1 kinase activity; assay type: biochemical; conditions: read-out: Ki CDK 1/B
T3 construct: purchased New England Biolabs (Beverly Mass.)
Experimental: as §2, §3
The complex of human CDK1 (cdc2) and cyclin B was purchased from New England Biolabs (Beverly Mass.). Alternatively, a CDK1/glutathione-S-transferase-cyclin B1 complex was purified using glutathione affinity chromatography from insect cells that had been co-infected with the corresponding baculovirus expression vectors. The assay was executed as described above at 30° C. using 2.5 units of cdc2/cyclin B, 10 μg Histone H1 protein, and 0.1-0.3 μCi [^32/33P]ATP per assay. Phosphorylated histone substrate was captured by microfiltration on a phosphocellulose P81 membrane and quantified using a phosphorimager as described above. Ki values were measured using the described curve-fitting programs.

T3 sequence (P06493 whole entry): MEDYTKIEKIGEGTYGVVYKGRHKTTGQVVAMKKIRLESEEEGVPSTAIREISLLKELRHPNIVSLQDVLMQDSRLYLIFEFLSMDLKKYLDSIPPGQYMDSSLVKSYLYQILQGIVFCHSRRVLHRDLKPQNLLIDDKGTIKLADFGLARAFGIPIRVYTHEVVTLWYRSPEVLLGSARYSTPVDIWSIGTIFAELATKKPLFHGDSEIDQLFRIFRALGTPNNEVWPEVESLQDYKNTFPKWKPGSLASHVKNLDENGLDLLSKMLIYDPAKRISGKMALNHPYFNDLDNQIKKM
T3 sequence (P14635 whole entry partner): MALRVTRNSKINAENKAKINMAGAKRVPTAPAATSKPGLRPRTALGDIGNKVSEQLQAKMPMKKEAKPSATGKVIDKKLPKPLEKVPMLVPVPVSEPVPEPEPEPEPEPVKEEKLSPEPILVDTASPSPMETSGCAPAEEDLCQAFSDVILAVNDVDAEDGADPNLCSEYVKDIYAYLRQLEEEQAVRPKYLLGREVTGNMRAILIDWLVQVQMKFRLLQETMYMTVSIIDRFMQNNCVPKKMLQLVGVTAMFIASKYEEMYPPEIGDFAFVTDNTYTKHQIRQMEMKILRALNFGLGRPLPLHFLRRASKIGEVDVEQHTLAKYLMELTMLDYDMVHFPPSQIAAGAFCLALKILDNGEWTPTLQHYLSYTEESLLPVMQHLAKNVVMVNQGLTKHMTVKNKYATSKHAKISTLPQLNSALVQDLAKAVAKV
T1 sequence (P11802 whole entry): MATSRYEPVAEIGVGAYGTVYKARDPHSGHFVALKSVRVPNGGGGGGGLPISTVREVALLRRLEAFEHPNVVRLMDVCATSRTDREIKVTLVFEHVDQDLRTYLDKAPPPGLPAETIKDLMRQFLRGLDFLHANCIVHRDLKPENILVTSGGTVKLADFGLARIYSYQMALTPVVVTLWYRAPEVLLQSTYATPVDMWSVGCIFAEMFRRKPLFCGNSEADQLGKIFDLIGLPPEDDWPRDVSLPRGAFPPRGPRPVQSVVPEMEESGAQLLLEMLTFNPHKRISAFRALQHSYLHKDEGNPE
T1 sequence (P30281 whole entry partner): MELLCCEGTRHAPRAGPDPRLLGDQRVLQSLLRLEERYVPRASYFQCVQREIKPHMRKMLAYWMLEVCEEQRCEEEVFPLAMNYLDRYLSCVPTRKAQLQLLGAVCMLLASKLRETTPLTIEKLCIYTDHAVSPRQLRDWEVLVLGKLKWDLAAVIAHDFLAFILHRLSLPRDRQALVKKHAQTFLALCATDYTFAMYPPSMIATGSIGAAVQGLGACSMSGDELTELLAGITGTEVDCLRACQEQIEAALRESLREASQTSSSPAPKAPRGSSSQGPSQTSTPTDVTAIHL

| Ki [1] [nM] | IC50 (U2-OS) [nM] | IC90 (U2-OS) [nM] | Ki (CDK2/cyclin A) [nM] | IC50 (HCT116) [nM] | IC90 (HCT116) [nM] | Ki [2] [nM] | SMILES | IC50 (Saos-2) [nM] | IC90 (Saos-2) [nM] | % inhibition of growth in parentheses after >25 (U2-OS) |
| --- | --- | --- | --- | --- | --- | --- | --- | --- | --- | --- |
| 10.3 | 2400 | 5000 | 191 | 640 | 1400 | 97 | CN1CCN(c2ccc(Nc3nc(N)c(C(=O)c4c(F)cccc4F)s3)cc2)CC1=O [C(118), 4-{4-[4-Amino-5-(2,6-difluoro-benzoyl)-thiazol-2-ylamino]-phenyl}-1-methyl-piperazin-2-one] | 940 | 1500 | – |
| 83 | 4700 | 19000 | 28 | – | – | 35 | CN(C)S(=O)(=O)c1ccc(Nc2nc(N)c(C(=O)c3c(F)cccc3F)s2)cc1 [C(109), 4-[4-Amino-5-(2,6-difluoro-benzoyl)-thiazol-2-ylamino]-N,N-dimethyl-benzenesulfonamide] | 1500 | 14000 | – |
| – | – | – | 620 | – | – | 911 | CN1CCN(c2ccc(Nc3nc(N)c(C(=O)c4c(F)cccc4C(F)(F)F)s3)cc2)CC1 [C(100), {4-Amino-2-[4-(4-methyl-piperazin-1-yl)-phenylamino]-thiazol-5-yl}-(2-fluoro-6-trifluoromethyl-phenyl)-methanone] | – | – | – |
| 15.4 | 7100 | 12000 | 164 | 2700 | 7000 | – | NC(=O)N1CCN(c2ccc(Nc3nc(N)c(C(=O)c4c(F)cccc4F)s3)cc2)CC1 [C(123), {4-Amino-2-[4-(4-carbamoyl-piperazin-1-yl)-phenylamino]-thiazol-5-yl}-(2,6-difluoro-phenyl)-methanone] | 2900 | 5700 | – |
| 20 | 14000 | ≥ 26000 | 638 | 5000 | 15000 | – | Nc1nc(Nc2ccc(N3CCOCC3)cc2)sc1C(=O)c1c(Cl)cncc1Cl [C(69), {4-Amino-2-[4-morpholin-4-yl-phenylamino]-thiazol-5-yl}-(3,5-dichloro-pyridin-4-yl)-methanone] | 12000 | ≥ 26000 | – |
| 30 | 10000 | 20000 | 26 | 4200 | 7800 | – | Cc1ncsc1C(=O)c1sc(Nc2ccc(S(N)(=O)=O)cc2)nc1N [C(47), 4-[4-Amino-5-(4-methyl-thiazole-5-carbonyl)-thiazol-2-ylamino]-benzenesulfonamide] | 2500 | 5100 | – |
| 22 | 6500 | > 25000 | 145 | 6100 | 25000 | – | Cc1ccc(C(=O)c2sc(Nc3ccc4nc[nH]c4c3)nc2N)c(C)c1 [C(20), [4-Amino-2-(1H-benzoimidazol-6-ylamino)-thiazol-5-yl]-(2,4-dimethyl-phenyl)-methanone] | 4900 | 13000 | (74%) |
| 8.5 | 10000 | 21000 | 392 | 3900 | 11000 | – | CC(=O)N1CCN(c2ccc(Nc3nc(N)c(C(=O)c4c(Cl)cccc4Cl)s3)cc2)CC1 [C(97), 2-[4-(1-Acetyl-piperazin-4-yl)-phenylamino]-4-amino-thiazol-5-yl-(2,6-dichlorophenyl)-methanone] | 9000 | 20000 | – |
| – | – | – | 482 | – | – | 827 | CN1CCN(c2ccc(Nc3nc(N)c(C(=O)c4c(Cl)cccc4Cl)s3)cc2)CC1 [C(71), {4-Amino-2-[4-(4-methyl-piperazin-1-yl)-phenylamino]-thiazol-5-yl}-(2,6-dichloro-phenyl)-methanone] | – | – | – |
| 159 | > 25000 | – | 233 | 1900 | 5000 | – | Cc1cc(N)sc1C(=O)c1sc(Nc2ccc(S(N)(=O)=O)cc2)nc1N [D(5)] | 17000 | 25000 | – |
| 17.3 | 8000 | 19000 | 238 | 3800 | 8000 | – | NC(=O)c1ccc(Nc2nc(N)c(C(=O)c3c(F)cccc3C(F)(F)F)s2)cc1 [C(113), 4-[4-Amino-5-(2-fluoro-6-trifluoromethyl-benzoyl)-thiazol-2-ylamino]-benzamide] | 2800 | 9000 | – |
| 23 | 1400 | 4800 | 6.8 | – | – | 9 | CNS(=O)(=O)c1ccc(Nc2nc(N)c(C(=O)c3c(F)cccc3F)s2)cc1 [C(108), 4-[4-Amino-5-(2,6-difluoro-benzoyl)-thiazol-2-ylamino]-N-methyl-benzenesulfonamide] | 310 | 3200 | – |
| 121 | – | – | 120 | – | – | 77 | CN1CCN(S(=O)(=O)c2ccc(Nc3nc(N)c(C(=O)c4c(F)cccc4F)s3)cc2)CC1 [C(116), {4-Amino-2-[4-(4-methyl-piperazine-1-sulfonyl)-phenylamino]-thiazol-5-yl}-(2,6-difluoro-phenyl)-methanone] | – | – | – |
| – | – | – | 220 | – | – | 325 | CN1CCN(c2ccc(Nc3nc(N)c(C(=O)c4c(F)cccc4F)s3)cc2)CC1 [C(80), {4-Amino-2-[4-(4-methyl-piperazin-1-yl)-phenylamino]-thiazol-5-yl}-(2,6-difluoro-phenyl)-methanone] | – | – | – |
| 117 | 22000 | > 25000 | 480 | 9000 | 22000 | – | Cc1ccc(C(=O)c2sc(Nc3cccnc3)nc2N)c(C)c1 [C(21), [4-Amino-2-(pyridin-3-ylamino)-thiazol-5-yl]-(2,4-dimethyl-phenyl)-methanone] | 13000 | 23000 | 57% |
| 10.2 | – | – | 13.5 | – | – | 22 | Nc1nc(Nc2ccc(S(=O)(=O)NCC3CCNCC3)cc2)sc1C(=O)c1c(F)cccc1F [J(4), 4-[4-Amino-5-(2,6-difluoro-benzoyl)-thiazol-2-ylamino]-N-piperidin-4-ylmethyl-benzenesulfonamide] | – | – | – |
| 21 | 3000 | 5500 | 216 | 1700 | 3800 | – | CC(=O)N1CCN(c2ccc(Nc3nc(N)c(C(=O)c4c(F)cccc4F)s3)cc2)CC1 [C(111), 2-[4-(1-Acetyl-piperazin-4-yl)-phenylamino]-4-amino-thiazol-5-yl-(2,6-difluorophenyl)-methanone] | 3800 | 5900 | – |

| SMILES | Ki [1] [nM] | IC50 (U2-OS) [nM] | IC90 (U2-OS) [nM] | Ki (CDK2/cyclin A) [nM] | IC50 (HCT116) [nM] | IC90 (HCT116) [nM] | Ki [2] [nM] | IC50 (Saos-2) [nM] | IC90 (Saos-2) [nM] | % inhibition of growth in parentheses after >25 (U2-OS) |
| --- | --- | --- | --- | --- | --- | --- | --- | --- | --- | --- |
| CC(C)(C)OC(=O)N1CCN(c2ccc(Nc3nc(N)c(C(=O)c4c(F)cccc4F)s3)cc2)CC1 [C(101), 4-Amino-2-[4-(1-tert-butoxycarbonyl-piperazine-4-yl)-phenylamino]-thiazol-5-yl-(2,6-difluorophenyl)-methanone] | 103 | – | – | 300 | – | – | 320 | – | – | – |
